In US20250042968A1, “EPHRIN LIGAND MIMETIC PEPTIDES FOR THE TREATMENT OF NEURODEGENERATIVE DISEASES” (University of Miami, priority 2022, published 2025):
Entries after “also recorded” stand apart in the source; their conditions may differ.

Columns and labels:
phosphorylated Rac1 = experiment: Western blot of phosphorylated Rac1 in mRGCs; type: cell-based, mouse; details: 500 nM
Protocol: (§1) On day 4, cells were treated with pre-clustered recombinant mouse EfnA5-His ligand [(+) Control, using anti-His_Tag antibody for 30 minutes] for 2 hours. Cells were then lysed in RIPA buffer containing protease and phosphatase inhibitor cocktails and maintained on ice. Protein was quantified using a BCA assay, and 10 μg of total protein was run on a TGX stain-free Any kD gel (BioRad) and transferred using the trans-blot turbo system (BioRad). Following transfer and blocking in 5% nonfat milk for 1 h, blots were probed with antibodies against RhoA, phosphorylated Rac1, ARHGEF15, Ephexin-1, or beta-actin as an endogenous loading control overnight at 4° C. Blots were then washed 3×5 min in PBS-T and incubated in the appropriate HRP-conjugated secondary antibody for 2 h at room temperature. Blots were imaged using chemiluminescent ECL substrate (Pierce) on a BioRad ChemiDoc MP imaging system and software.

isolated mouse RGCs = experiment: Immunofluorescent staining of TUBB3 and F-actin in isolated mouse RGCs; type: cell-based; details: 1 μM, 4 days
Source text: (§2) In order to assess the effect of xEFN peptide supplementation on Eph-receptor modulation, various in vitro assays were employed on isolated mouse RGCs. […] Similarly, xEFN_RBD1, and 3 inhibited the phosphorylation of Rac1 by pre-clustered ephirnA5 ligand stimulation. […] TUBB3 is a marker specific for neuronal microtubules and functions as a neuronal-specific marker.

Ephexin-1 = experiment: Western blot of phosphorylated Ephexin-1 in mRGCs; type: cell-based, mouse; details: 500 nM
Protocol: as §1

RhoA = experiment: Western blot of RhoA in mRGCs; type: cell-based, mouse; details: 500 nM
Protocol: as §1

EphB2 = target: T1, EphB2 (Mus musculus, UniProt P54763); experiment: Western blot of EphB2 expression in isolated mouse RGCs; type: cell-based; details: 1 μM, 4 days
T1 construct: endogenous in cells; host or cells: primary mouse retinal ganglion cells
T1 sequence (P54763 19-986): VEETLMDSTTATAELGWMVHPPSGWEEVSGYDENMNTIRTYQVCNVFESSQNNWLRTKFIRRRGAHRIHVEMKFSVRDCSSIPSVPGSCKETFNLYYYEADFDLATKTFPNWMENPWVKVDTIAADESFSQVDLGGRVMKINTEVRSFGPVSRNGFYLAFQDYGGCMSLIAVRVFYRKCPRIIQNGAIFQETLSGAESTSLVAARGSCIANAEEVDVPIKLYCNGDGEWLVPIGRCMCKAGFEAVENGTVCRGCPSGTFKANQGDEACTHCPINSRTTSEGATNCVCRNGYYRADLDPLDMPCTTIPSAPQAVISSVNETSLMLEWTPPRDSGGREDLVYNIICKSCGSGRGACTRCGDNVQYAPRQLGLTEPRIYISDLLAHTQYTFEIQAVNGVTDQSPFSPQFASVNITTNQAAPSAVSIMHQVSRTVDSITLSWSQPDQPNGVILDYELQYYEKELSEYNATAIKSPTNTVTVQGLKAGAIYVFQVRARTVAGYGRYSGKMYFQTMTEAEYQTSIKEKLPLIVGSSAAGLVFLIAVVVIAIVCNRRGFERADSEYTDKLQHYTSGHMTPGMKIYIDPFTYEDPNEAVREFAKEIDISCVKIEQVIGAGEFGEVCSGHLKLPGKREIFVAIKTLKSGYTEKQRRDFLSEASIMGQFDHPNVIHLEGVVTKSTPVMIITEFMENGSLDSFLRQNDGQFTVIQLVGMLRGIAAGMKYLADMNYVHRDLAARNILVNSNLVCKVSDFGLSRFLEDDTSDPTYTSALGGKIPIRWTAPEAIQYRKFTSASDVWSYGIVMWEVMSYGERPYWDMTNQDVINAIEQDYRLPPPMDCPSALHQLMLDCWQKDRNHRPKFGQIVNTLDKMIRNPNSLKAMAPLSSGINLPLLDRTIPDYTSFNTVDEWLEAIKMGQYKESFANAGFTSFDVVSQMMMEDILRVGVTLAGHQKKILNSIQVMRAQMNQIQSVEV
Source text: as §2

[1] = tested on: RGCs and optic nerve axons after optic nerve crush (ONC); experiment: Mouse model of optic nerve crush (ONC), intravitreal xEFN peptides; type: in vivo; details: for RGC pool rescue / survival over PBS-treated controls: intravitreal, 4 weeks after injury; for regenerating axons compared to controls: starting at 100 μm past the injury site and throughout the analysis window
Protocol: Antagonizing forward Eph signaling has been proven beneficial in a number of CNS disorders (Neurogastroenterol Motil. 2020:e13782; Acta Neuropathol Commun. 2018; 6(1):111; Proc Natl Acad Sci USA. 2014 Jul. 8; 111(27):9959-64; Eur J Neurosci. 2014 Oct; 40(7):3021-31; Neuroscience. 2013 Jun. 25; 241:89-99). The use of xEFN peptides as multi-Eph receptor antagonists was evaluated in treating retinal degeneration induced by optic nerve crush (ONC). The ONC model is the most commonly used model for the study of glaucoma and other optic neuropathies. All animal experiments were performed in compliance with the National Institutes of Health (Bethesda, MD, USA) Guide for the Care and Use of Laboratory Animals and the ARVO Statement for the Use of Animals in Ophthalmic and Vision Research. Animal protocols were reviewed and approved by the Institutional Animal Care and Use Committee of the University of Miami. […] With the use of jeweler's forceps (Dumont No. 5; tip dimension, 0.1×0.06 mm), the optic nerve is then crushed for 10 seconds at a location 2 mm distal from its insertion point into the globe. […] […]. At 4 weeks post-injury, animals were euthanized and enucleated for extraction of the retinas and optic nerves. Retinas were stained by immunohistochemistry for TUBB3 and RGCs were manually counted in each animal. Optic nerves were placed into tissue clearing solution for 1 week and then imaged for the CTB-647 label as whole mounts using a Leica SP8 Laser Scanning Confocal microscope (Leica Microsystems). Axonal projections were quantified at 100 μm intervals along the optic nerve track for up to 2 mm past the crush site using the fluorometric intensity measurement and analysis tool in the Leica LAS X microscopy suite software package, using the contralateral nerve (not CTB-injected) as a background reading for 647 nm fluorometric intensity in each sample.

[2] = tested on: RGCs and visual function after optic neuropathy onset; experiment: Ultrasonic shockwave optic nerve injury model (SI-TON): RGC survival, PERG, flash ERG; type: in vivo, mouse
Protocol: In this example, the effect of xEFN peptide administration on the visual function of mice in an animal model that more closely resembled the human manifestation and progression of visual dysfunction following the onset of optic neuropathy was assessed. […] Visual function was measured at 2 and 4 weeks post optic nerve injury in all groups using pattern electroretinogram (PERG) to measure RGC function, as well as flash electroretinogram (ERG) to assess rod and cone functionality.

FTIKFQEFSPNLWGL [xEFN_RBD3]
phosphorylation of Rac1 by pre-clustered ephrinA5 ligand stimulation (phosphorylated Rac1): inhibited | neuroprotection seen by TUBB3 expression versus control in vitro cultures (isolated mouse RGCs): neuroprotection; also recorded: effectively preserved RGCs | phosphorylation of Ephexin-1 (Ephexin-1): decrease | expression of the GTPase RhoA (RhoA): downregulates | expression of EphB2 (western blot) (EphB2): reduced expression; also recorded: effectively decreased expression | RGC survival ([1]; 6 μg intravitreal twice (immediately after ONC and 7 days after), 4 weeks, compared to uninjured contralateral retina): 44.17+/−2.39% | axonal projections detected distal to the crush site ([1]; CTB labeled axons, 4 weeks post-ONC, analysis region 2000 μm): ≥ 2000 μm | RGC pool rescue / survival over PBS-treated controls [1]: significant rescue | RGC pool rescue / survival over PBS-treated controls ([1]; listed as xEFN_EBD3): significant RGC survival | regenerating axons compared to controls [1]: significant increase | regenerating axons compared to controls ([1]; listed as xEFN_EBD3): axonal regeneration | PERG amplitude over baseline recordings ([2]; 2 weeks post optic nerve injury): decline | visual response versus vehicle (PBS) treated animals ([2]; 4 week assessment): significantly better | RGC survival compared to vehicle treated controls ([2]; 4 weeks post injury): significant survival effect | visual function (PERG) at the 4 week assessment ([2]; 4 weeks post optic nerve injury): improved
